For data set [1], the system named is patients with rhinitis, allergic rhinitis in particular. Description: Administration tests of CNP, BNP or ANP nasal solution preparations in rhinitis patients (case studies). It is filed as in vivo, human. Particulars: for Symptom improvement (severity level before → after application): 50 μg/ml nasal solution, one spray (130 μl, 6.5 μg) in each nostril once or twice a day, each value one patient (Case); for Effect on nasal itching / tickling feeling (in words): 50 μg/ml twice a day; for Time after application until slight improvement in nasal itching: initial application; for Overall effect on rhinitis symptoms (in words): patients with rhinitis, BNP versus ANP. On the procedure: Diagnosis, evaluation of symptoms, and examination of the CNP nasal drop preparations, BNP nasal drop preparations and ANP nasal drop preparation were performed as follows. The subjects are patients in whom conventional external medicines such as steroids are not sufficiently effective, or patients in whom the use of steroids must be avoided due to local side effects such as nasal irritation and dryness. Diagnosis and treatment of these subjects were performed by the present applicant as a medical doctor. Severity evaluation of symptoms of allergic rhinitis was performed, in principle, in accordance with “Guidelines for medical care of nasal allergies, 2009 edition” (edited by the committee for creation of guidelines for medical care of nasal allergies), by classifying into 5 stages as shown below. Here, “mixed type” refers to the cases wherein both of the sneezing attack or rhinorrhea and the nasal occlusion were presented with the same severity. […] In the above table, evaluation scores for sneezing fit, rhinorrhea and nasal occlusion are as described in the table below. […] Administration tests of the nasal solution preparations of the present invention were performed by, in principle, spraying the CNP nasal solution, BNP nasal solution or ANP nasal solution used to fill a nasal spraying device twice a day at awakening time and before bedtime, with one spray in each nostril at each time. […] Prior to the application of CNP preparations, BNP preparations or ANP preparation, the subjects' history was obtained, scratch tests for allergens were performed and diagnosis was made.

For another data set, the system named is pollen allergy. Particulars: after 2 weeks of application, spraying once a day; cited from earlier work.
[2] abbreviates: 50 μg/ml, initial or continued application, listed as ANP nasal solution.

“Also recorded” adds a separate entry of the source.

Turning to `CC[C@H](C)[C@@H]1NC(=O)[C@H](CCCNC(=N)N)NC(=O)[C@H](CC(=O)O)NC(=O)[C@H](CC(C)C)NC(=O)[C@H](CCCCN)NC(=O)[C@H](CC(C)C)NC(=O)CNC(=O)[C@H](Cc2ccccc2)NC(=O)[C@@H](NC(=O)CNC(=O)[C@H](CCCCN)NC(=O)[C@H](CO)NC(=O)[C@H](CC(C)C)NC(=O)CN)CSSC[C@@H](C(=O)O)NC(=O)CNC(=O)[C@H](CC(C)C)NC(=O)CNC(=O)[C@H](CO)NC(=O)[C@H](CCSC)NC(=O)[C@H](CO)NC(=O)CNC1=O` [CNP nasal solution preparation, human CNP-22], in data set [1] (100 μg/ml nasal spray), the “Local irritation symptoms / side effects” value is “side effects such as local irritation symptoms were not observed; also recorded: No local irritation symptoms were observed; also recorded: No local side effects such as irritation, as well as no systemic side effects such as drowsiness were observed; also recorded: without irritation or local side effects; also recorded: without any irritation symptoms”; the “Permeability of the nasal solution (in words)” value was “good and good permeability”.
With `CC[C@H](C)[C@@H]1NC(=O)[C@H](CCCNC(=N)N)NC(=O)[C@H](CC(=O)O)NC(=O)[C@H](CCSC)NC(=O)[C@H](CCCCN)NC(=O)[C@H](CCCNC(=N)N)NC(=O)CNC(=O)[C@H](Cc2ccccc2)NC(=O)[C@@H](NC(=O)CNC(=O)[C@H](CO)NC(=O)CNC(=O)[C@H](CCC(N)=O)NC(=O)[C@@H](NC(=O)[C@H](CCSC)NC(=O)[C@H](CCCCN)NC(=O)[C@@H]2CCCN2C(=O)[C@@H](N)CO)C(C)C)CSSC[C@@H](C(=O)N[C@@H](CCCCN)C(=O)N[C@H](C(=O)N[C@@H](CC(C)C)C(=O)N[C@@H](CCCN=C(N)N)C(=O)N[C@@H](CCCN=C(N)N)C(=O)N[C@@H](Cc2cnc[nH]2)C(=O)O)C(C)C)NC(=O)CNC(=O)[C@H](CC(C)C)NC(=O)CNC(=O)[C@H](CO)NC(=O)[C@H](CO)NC(=O)[C@H](CO)NC(=O)[C@H](CO)NC1=O` [BNP nasal solution preparation, human BNP-32], the “Local irritation symptoms / side effects” value is reported as “later. No irritation” in data set [1] (50 μg/ml nasal spray); “local irritation symptoms did not occur; also recorded: no irritation symptoms were observed” in data set [1] (50 μg/ml nasal spray, listed as BNP nasal solution); “it does not exhibit such side effects” in data set [1] (100 μg/ml nasal spray); “no local irritation symptoms or feelings of discomfort” in data set [1] (200 μg/ml nasal spray, listed as BNP nasal solution).
For the compound `C[C@@H]1C[C@H]2[C@@H]3CCC4=CC(=O)C=C[C@]4(C)[C@@]3(Cl)[C@@H](O)C[C@]2(C)[C@@]1(OC(=O)c1ccco1)C(=O)CCl` [Mometasone furoate hydrate], in the data set on pollen allergy, the “Degree of improvement in nasal occlusion” value is given as 30-40% and the “Degree of improvement in overall symptoms” value is 40-50%.
As to “human ANP-28 [ANP nasal solution preparation]”, the “Symptom improvement (severity level before → after application)” value in data set [1] is on record as “Severe → severe”; in data set [1] (listed as ANP nasal solution), “severe before the ANP application to still severe”. The “Effect on nasal itching / tickling feeling (in words)” value in data set [1] is listed as “improved slightly”; in data set [1] (listed as ANP nasal solution), “slightly improved”. Besides, the “Time after application until slight improvement in nasal itching” value in data set [1] (50 μg/ml) is “At 1 hr later, a slight”; in data set [1] (50 μg/ml, listed as ANP nasal solution), “One hour later”. The “Effect on nasal occlusion (in words)” value in data set [1] (50 μg/ml, initial or continued application) is given as “sensation was not improved”; in data set [1] (setting [2]), “not improved; also recorded: no changes”. In addition, in data set [1] (setting [2]), the “Effect on rhinorrhea / runny nose (in words)” value was “did not stop; also recorded: no changes; also recorded: not improved; also recorded: No improvement”. The “Number of nose blows under application” value in data set [1] (50 μg/ml, once or twice a day) is “approximately 20 times a day”. In addition, the “Persistence of the effects of an application (in words)” value in data set [1] (50 μg/ml, one application, listed as ANP nasal solution) is listed as “persistence was short”. Besides, the “Time after application until nasal passages opened” value in data set [1] (50 μg/ml, subjective, listed as ANP nasal solution) turned out to be 20 min. For the same compound, the “Overall effect on rhinitis symptoms (in words)” value in data set [1] is listed as “no immediate effect was observed”; in data set [1] (listed as ANP preparations), “no improvements or worsening”.

The values are drawn from patent US11452762B2, “Method of treating rhinitis with C-type natriuretic peptides” (IGISU Co., Ltd., priority 2009, dated 2022).
